Structures can show the parent of a compound that is named as a salt. Where two headings read alike, the source gives them in different places.
Key:
human N7-MTase RNMT-RAM = human N7-MTase RNMT-RAM (Homo sapiens, UniProt O43148); assay: Py-FLINT N7-MTase inhibition assay; assay type: biochemical; details: for IC50 Py-FLINT (RNMT-RAM): 2 μM Py-FLINT probe, 20 μM SAM, 20 nM RNMT-RAM
in vitro = details: human
SARS-CoV-2 = assay type: cell-based; details: for EC50: read-out: EC50 Antiviral assay
nsp14 = nsp14 (Severe acute respiratory syndrome coronavirus 2, UniProt P0DTD1); assay type: binding, SARS-CoV-2; details: 100 μM inhibitor; for Inhibitor type (targeted binding site): from both FA competition assays
nsp14 N7-MTase = nsp14 N7-MTase (Severe acute respiratory syndrome coronavirus 2, UniProt P0DTD1); assay: RP HPLC inhibition study of Gp3A N7-methylation; assay type: biochemical, SARS-CoV-2
[1] = biological target: SARS-CoV-2 nsp14 N7-MTase (Severe acute respiratory syndrome coronavirus 2, UniProt P0DTD1); assay: Py-FLINT N7-MTase inhibition assay; assay type: biochemical

Chain of human N7-MTase RNMT-RAM (O43148 whole entry): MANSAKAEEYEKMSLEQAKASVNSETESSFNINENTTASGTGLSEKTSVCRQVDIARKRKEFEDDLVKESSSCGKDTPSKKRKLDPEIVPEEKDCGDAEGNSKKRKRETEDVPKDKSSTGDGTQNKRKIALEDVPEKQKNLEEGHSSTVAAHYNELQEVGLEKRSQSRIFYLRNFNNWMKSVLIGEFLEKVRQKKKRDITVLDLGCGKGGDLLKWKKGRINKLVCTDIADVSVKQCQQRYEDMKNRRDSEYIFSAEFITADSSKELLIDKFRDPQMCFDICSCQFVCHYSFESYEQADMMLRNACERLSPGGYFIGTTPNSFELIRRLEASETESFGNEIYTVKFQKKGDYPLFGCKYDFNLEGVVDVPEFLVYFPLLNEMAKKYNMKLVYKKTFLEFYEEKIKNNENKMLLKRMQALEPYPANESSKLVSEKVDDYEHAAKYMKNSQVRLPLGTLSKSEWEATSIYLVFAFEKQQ
Chain of human N7-MTase RNMT-RAM (Q9BTL3 whole entry partner): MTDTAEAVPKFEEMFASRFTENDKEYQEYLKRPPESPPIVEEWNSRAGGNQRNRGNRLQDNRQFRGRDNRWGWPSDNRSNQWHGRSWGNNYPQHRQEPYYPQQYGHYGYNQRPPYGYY

| Structure (SMILES) | IC50 (human N7-MTase RNMT-RAM) | CC50 (in vitro) | CC50/EC50 Selectivity index (SARS-CoV-2; Huh 7 cells) | Inhibitor type (targeted binding site) (nsp14) | also measured |
| --- | --- | --- | --- | --- | --- |
| O=c1c2ccccc2[se]n1-c1ccccc1 [FI6, Ebselen] | 23.8 ± 1.3 µM |  |  |  |  |
| Cc1cc(-c2ccc(/N=N/c3ccc4c(S(=O)(=O)O)cc(S(=O)(=O)O)c(N)c4c3O)c(C)c2)ccc1/N=N/c1ccc2c(S(=O)(=O)O)cc(S(=O)(=O)O)c(N)c2c1O [FI7, Evans Blue] | 0.33 ± 0.05 µM | 35.6 ± 1 µM | 1.15 ± 0.04 |  | EC50 (SARS-CoV-2): 31 ± 0.9 µM |
| CC(=O)OC[C@H]1O[C@@H]([S-])[C@H](OC(C)=O)[C@@H](OC(C)=O)[C@@H]1OC(C)=O.CCP(CC)CC.[Au+] [FI9, Auranofin] |  |  |  | bound by nsp14 within the nucleotide binding pocket | EC50 (SARS-CoV-2): > 100 µM; IC50 Py-FLINT (RNMT-RAM) (human N7-MTase RNMT-RAM): no human N7-MTase inhibition |
| Oc1c(Cl)cc(Cl)c(Cl)c1Cc1c(O)c(Cl)cc(Cl)c1Cl [FI11, Hexachlorophene] | 8 ± 3.2 µM |  |  | bound by nsp14 within the nucleotide binding pocket | CC50/EC50 Selectivity index (SARS-CoV-2): not active |
| NCCOc1cc(C(=O)Nc2cc(OCCN)c3ccccc3n2)nc(C(=O)Nc2cc(OCCN)c3ccccc3n2)c1 [LI3, Pyridostatin xCF3COO^-] | 3.1 µM | 59.3 ± 21.6 µM | 16.6 ± 6.1 |  | inhibition of m7Gp3A formation (RP HPLC) (nsp14 N7-MTase): lower potency; p (Hill slope) ([1]; compounds selected from LOPAC1280 library (Table S3)): 18.1; FA values in both binding assays and control sample (nsp14): high FA values in both assays as well as in the control sample; EC50 (SARS-CoV-2): 3.58 ± 0.16 µM; EC50 (SARS-CoV-2; listed as Pyridostatin): < 50 µM |
| Nc1c(S(=O)(=O)O)cc(Nc2ccc(Nc3nc(Cl)nc(Nc4cccc(S(=O)(=O)O)c4)n3)c(S(=O)(=O)O)c2)c2c1C(=O)c1ccccc1C2=O [LI4, Reactive Blue 2] | 1.5 ± 0.28 µM | 52.6 ± 10.2 µM |  |  | EC50 (SARS-CoV-2): 16.3 ± 0.3 µM; EC50 (SARS-CoV-2; listed as Reactive Blue 2): < 50 µM |
| O=C1c2c(O)ccc(O)c2C(=O)c2c(NCCNCCO)ccc(NCCNCCO)c21 [LI5, Mitoxantrone 2HCl] | 3.92 ± 0.21 µM | < 0.04 µM | not active |  | inhibition of m7Gp3A formation (RP HPLC) (nsp14 N7-MTase): lower potency; FA values in both binding assays and control sample (nsp14): high FA values in both assays as well as in the control sample |
| N.N.N.N.N.N.N.N.N.N.N.N.N.N.[Cl-].[Cl-].[Cl-].[Cl-].[Cl-].[Cl-].[O-2].[O-2].[Ru+3].[Ru+3].[Ru+4] [LI6, Ruthenium red] |  |  |  |  | inhibition of m7Gp3A formation (RP HPLC) (nsp14 N7-MTase): lower potency |
| CC(C)N(CCC(=O)c1ccc2ccccc2c1)Cc1ccccc1 [LI7, ZM 39923 HCl] | 15.9 ± 3.3 µM | 12.2 ± 0.6 µM | not active | bound by nsp14 within the nucleotide binding pocket |  |
| O=c1c(O)c(-c2cc(O)c(O)c(O)c2)oc2cc(O)cc(O)c12 [LI8, Myricetin] | 3.57 ± 0.36 µM | 41.6 ± 7.1 µM |  |  |  |
| COC(=O)c1c(NC(=O)c2cc3ccccc3o2)sc(C)c1C [OI1, Methyl 2-[(1-benzofuran-2-ylcarbonyl)amino]-4,5-dimethylthiophene-3-carboxylate] | > 100 µM | > 100 µM | not active | bound by nsp14 within the nucleotide binding pocket | IC50 Py-FLINT (RNMT-RAM) (human N7-MTase RNMT-RAM): no human N7-MTase inhibition |
| Clc1cccc(/C=C/c2nn3c(-c4ccco4)nnc3s2)c1 [OI2, (E)-6-(3-Chlorostyryl)-3-(furan-2-yl)-[1,2,4]triazolo[3,4-b][1,3,4]thiadiazole] | > 100 µM | 71.3 ± 5.9 µM | not active | bound by nsp14 within the nucleotide binding pocket | IC50 Py-FLINT (RNMT-RAM) (human N7-MTase RNMT-RAM): no human N7-MTase inhibition |
| Nc1ncnc2c1ncn2[C@@H]1O[C@H](C[C@@H](N)CC[C@H](N)C(=O)O)[C@@H](O)[C@H]1O [Sinefungin] | 0.22 ± 0.02 µM | > 100 µM |  |  |  |
| O=c1cc(-c2ccccc2)oc2cc(O)c(O)c(O)c12 [baicalein] |  |  |  |  | inhibition of reaction progress in library screening ([1]; 50 μM library compound): did not observe such activity |
